Experimental findings from patent US20140329858A1, “Cyclic Urea Derivatives As Androgen Receptor Antagonists” (priority 2011, published 2014) are described below.

pIC50: −log10 of the molar value.

The subject of one experiment is Vcap cells. The experiment can be described thus: Dihydrotestosterone (DHT) mediated XTT cell proliferation assay for screening AR antagonists using Vcap cells. Conditions: Homo sapiens, 240 h, in the presence of 0.2 nM DHT, XTT readout on Day 10, IC50 curves from 8 concentrations. It counts as cell-based. The method, then: Dihydrotestosterone (DHT) Mediated XTT Cell Proliferation Assay for Screening AR Antagonists Using Vcap cells
The Vcap cells (4×10^6 cells) were seeded in a T-75 flask containing DMEM with 15% FBS. After 72 hours, the media was removed; the cells were washed once and replaced with phenol red free DMEM containing 8% charcoal stripped serum. Then, the cells were starved in phenol red free DMEM with 8% charcoal stripped serum for 5 days. Following the starvation, the cells were harvested and seeded in 96 well plates (10×10^3 cells per well) in phenol red free DMEM with 8% charcoal stripped serum (Day 0). The cells were allowed to settle and on Day 4 they were treated with different concentrations of the compound (30 μM, 10 μM, 1 μM, 500 nM, 100 nM, 10 nM, 1 nM, 0.1 nM) in the presence of 0.2 nM DHT. DHT alone and a DMSO controls were also included. All treatments were done in triplicate. The drugs were replenished on Day 7 and the cells were allowed to grow for another 72 hours. On Day 10, the experiment was terminated by adding the XTT reagent (2,3-bis[2-methoxy-4-notro-5-sulfophenyl]-2H-tetrazolium-5-caboxyanilide inner salt) dissolved in Phenol red free DMEM without serum. The cells with the XTT reagents were incubated inside the CO2 incubator for 3-4 hours for color development; after which the readings were taken at […] using a spectramax Gemini plate reader.
Data fitting: The IC50 curves for the 8 compound concentrations were calculated with GraphPad Prism software using the sigmoidal dose-response function. (Graphpad Software, San Diego, Calif., USA).
What is called pIC50 is −log10 of the IC50, conventionally taken in molar units. As to `CNC(=O)c1ccc(N2C(=O)N(c3ccc(C#N)c(C(F)(F)F)c3)[C@@H]3CCCC[C@H]32)cc1F` (racemic) [Example 1, Trans-4-{3-[4-cyano-3-(trifluoromethyl)phenyl]-2-oxo-octahydro-1H-1,3-benzodiazol-1-yl}-2-fluoro-N-Methylbenzamide (±)], the pIC50 was 6.61. With `N#Cc1ccc(N2C(=O)N(Cc3cc[nH]n3)[C@@H]3CCCC[C@H]32)cc1C(F)(F)F` (racemic) [Example 51, Trans-4-(3-((1H-pyrazol-3-yl)methyl)-2-oxooctahydro-1H-benzo[d]imidazol-1-yl)-2-(trifluoromethyl)benzonitrile (±)], the negative logarithm of the IC50 (pIC50) was 5.97. Still for that read-out and setting: the figure for `N#Cc1ccc(N2C(=O)N(c3ccc(S(N)(=O)=O)c(F)c3)[C@@H]3CCCC[C@H]32)cc1C(F)(F)F` (racemic) [Example 67, Trans-4-(3-(4-cyano-3-(trifluoromethyl)phenyl)-2-oxooctahydro-1H-benzo[d]imidazol-1-yl)-2-fluorobenzenesulfonamide (±)] is 5.96; for `N#Cc1ccc(N2C(=O)N(c3cnccc3C3CC3)[C@H]3CCCC[C@@H]32)cc1C(F)(F)F` [Example 62, 4-((3aS,7aS)-3-(4-cyclopropylpyridin-3-yl)-2-oxooctahydro-1H-benzo[d]imidazol-1-yl)-2-(trifluoromethyl)benzonitrile] it is 5.67; for `N#Cc1ccc(N2C(=O)N(c3ccccc3)[C@@H]3CCCC[C@H]32)cc1C(F)(F)F` (racemic) [Example 5, Trans-4-(2-oxo-3-phenyloctahydro-1H-benzo[d]imidazol-1-yl)-2-(trifluoromethyl)benzonitrile (±)] it is 5.99. As to `Cc1n[nH]cc1N1C(=O)N(c2ccc(C#N)c(C(F)(F)F)c2)[C@@H]2CCCC[C@H]21` (racemic) [Example 52, trans-4-(3-(3-methyl-1H-pyrazol-4-yl)-2-oxooctahydro-1H-benzo[d]imidazol-1-yl)-2-(trifluoromethyl)benzonitrile (±)], the negative logarithm of the IC50 (pIC50) was below 5.00.

`CNC(=O)c1ccc(N2C(=O)N(c3ccc(C#N)c(C(F)(F)F)c3)[C@@H]3CCCC[C@H]32)s1` (racemic) [Example 40, Trans-5-(3-(4-cyano-3-(trifluoromethyl)phenyl)-2-oxooctahydro-1H-benzo[d]imidazol-1-yl)-N-methylthiophene-2-carboxamide (±)]: the negative-log IC50 (pIC50) is below 5.00.

In the case of `CNC(=O)c1ccc(C2=C[C@@H]3[C@@H](CC2)N(c2ccc(C#N)c(C(F)(F)F)c2)C(=O)N3C)cc1F` (racemic) [Example 88, Trans-4-(1-(4-cyano-3-(trifluoromethyl)phenyl)-3-methyl-2-oxo-2,3,3a,6,7,7a-hexahydro-1H-benzo[d]imidazol-5-yl)-2-fluoro-N-methylbenzamide (±)], the pIC50 was 6.66. Turning to `N#Cc1ccc(N2C(=O)N(c3ccc(C(N)=O)nc3)[C@H]3CCCC[C@@H]32)cc1C(F)(F)F` [Example 55, 5-((3aS,7aS)-3-(4-cyano-3-(trifluoromethyl)phenyl)-2-oxooctahydro-1H-benzo[d]imidazol-1-yl)picolinamide], the pIC50 is 6.76.

Take `N#Cc1ccc(N2C(=O)N(c3cc(Cl)cc(Cl)c3)[C@H]3CCCC[C@@H]32)cc1C(F)(F)F` [Example 44, 4-((3aS,7aS)-3-(3,5-dichlorophenyl)-2-oxooctahydro-1H-benzo[d]imidazol-1-yl)-2-(trifluoromethyl)benzonitrile]: the negative-log IC50 (pIC50) is 7.02.

`CNC(=O)c1ccc(C2=C[C@H]3[C@@H](CC2)N(c2ccc(C#N)c(C(F)(F)F)c2)C(=O)N3C)cc1F` (racemic) [Example 89, Cis-4-(1-(4-cyano-3-(trifluoromethyl)phenyl)-3-methyl-2-oxo-2,3,3a,6,7,7a-hexahydro-1H-benzo[d]imidazol-5-yl)-2-fluoro-N-methylbenzamide (±)]: the negative logarithm of the IC50 (pIC50) was 6.00. Turning to `Cc1cc(N2C(=O)N(c3ccc(C#N)c(C(F)(F)F)c3)[C@@H]3COCC[C@H]32)ccn1` (racemic) [Example 72, Trans-4-(1-(2-methylpyridin-4-yl)-2-oxohexahydropyrano[3,4-d]imidazol-3(2H)-yl)-2-(trifluoromethyl)benzonitrile (±)], the negative-log IC50 (pIC50) was below 5.00.

For the compound `Cc1cc(N2C(=O)N(c3ccc(C#N)c(C(F)(F)F)c3)[C@H]3COCC[C@@H]32)ccc1C(N)=O` (racemic) [Example 79, Trans-4-(3-(4-cyano-3-(trifluoromethyl)phenyl)-2-oxohexahydropyrano[3,4-c]imidazol-1(6H)-yl)-2-methylbenzamide (±)], the pIC50 was 5.36. As for `N#Cc1ccc(N2C(=O)N(c3ccc(C(=O)NOCC4CCC4)c(F)c3)[C@@H]3CCCC[C@H]32)cc1C(F)(F)F` (racemic) [Example 21, Trans-4-(3-(4-cyano-3-(trifluoromethyl)phenyl)-2-oxooctahydro-1H-benzo[c]im-idazol-1-yl)-N-(cyclobutylmethoxy)-2-fluorobenzamide (±)], the negative logarithm of the IC50 (pIC50) was 6.59. Regarding `CN1CCC(ONC(=O)c2ccc(N3C(=O)N(c4ccc(C#N)c(C(F)(F)F)c4)[C@@H]4CCCC[C@H]43)cc2F)CC1` (racemic) [Example 28, Trans 4-(3-(4-cyano-3-(trifluoromethyl)phenyl)-2-oxooctahydro-1H-benzo[c]im-idazol-1-yl)-2-fluoro-N-((1-methylpiperidin-4-yl)oxy)benzamide (±)], the pIC50 was 6.83. As for `CCOC(=O)c1ccc(N2C(=O)N(c3ccc(C#N)c(C(F)(F)F)c3)[C@@H]3CCCC[C@H]32)cc1F` (racemic) [Example 6, Trans-ethyl-4-(3-(4-cyano-3-trifluoromethyl)phenyl)-2-oxooctahydro-1H-benzo[d]imidazol-1-yl)-2-fluorobenzoate (±)], the pIC50 is below 5.00. Same read-out and setting: the figure for `CNC(=O)c1cc(N2C(=O)N(c3ccc(C#N)c(C(F)(F)F)c3)[C@H]3CCCC[C@@H]32)ccn1` [Example 56, 4-((3aS,7aS)-3-(4-cyano-3-(trifluoromethyl)phenyl)-2-oxooctahydro-1H-benzo[d]imidazol-1-yl)-N-methylpicolinamide] is 5.74. On the same count and under the same terms, as for `N#Cc1ccc(N2C(=O)N(c3ccc(C(=O)NOCC4CCCO4)c(F)c3)[C@@H]3CCCC[C@H]32)cc1C(F)(F)F` (mixture of isomers) [Example 27, Trans 4-(3-(4-cyano-3-(trifluoromethyl)phenyl)-2-oxooctahydro-1H-benzo[c]im-idazol-1-yl)-2-fluoro-N-((tetrahydrofuran-2-yl)methoxy)benzamide (±)], the figure is 6.71. `N#Cc1ccc(N2C(=O)N(c3ccc(C(=O)NCCO)c(F)c3)[C@H]3CCCC[C@@H]32)cc1C(F)(F)F` [Example 33, 4-((3aS,7aS)-3-(4-cyano-3-(trifluoromethyl)phenyl)-2-oxooctahydro-1H-benzo[d]imidazol-1-yl)-2-fluoro-N-(2-hydroxyethyl)benzamide]: the negative-log IC50 (pIC50) is 7.36. For the compound `CNC(=S)c1ccc(N2C(=O)N(c3ccc(C#N)c(C(F)(F)F)c3)[C@H]3CCCC[C@@H]32)cc1F` [Example 41, 4-((3aS,7 aS)-3-(4-cyano-3-(trifluoromethyl)phenyl)-2-oxooctahydro-1H-benzo[d]imidazol-1-yl)-2-fluoro-N-methylbenzothioamide], the pIC50 was 6.87.

The same experiment, now with this note: in the presence of 0.2 nM DHT, XTT readout on Day 10, IC50 curves from 8 concentrations.
As for `N#Cc1ccc(N2C(=O)N(c3ccnc(F)c3)[C@@H]3CCCC[C@H]32)cc1C(F)(F)F` (relative stereo) [Example 10a, Trans-4-(3-(2-fluoropyridin-4-yl)-2-oxooctahydro-1H-benzo[d]imidazol-1-yl)-2-(trifluoromethyl)benzonitrile (+)], the negative logarithm of the IC50 (pIC50) was 5.59. Regarding `CNC(=O)c1ccc(N2C(=O)N(c3ccc(C#N)c(C(F)(F)F)c3)C3CCC(O)CC32)cc1F` (single isomer, unassigned) [Example 82b, Trans-4-(3-(4-cyano-3-(trifluoromethyl)phenyl)-6-hydroxy-2-oxooctahydro-1H-benzo[d]imidazol-1-yl)-2-fluoro-N-methylbenzamide (−)], the pIC50 was 6.51.

Consider `CNC(=O)c1ccc(N2C(=O)N(c3ccc(C#N)c(C(F)(F)F)c3)[C@@H]3CCCCC[C@H]32)cc1F` (relative stereo) [Example 80b, Trans-4-(3-(4-cyano-3-(trifluoromethyl)phenyl)-2-oxooctahydrocyclohepta[d]imidazol-1(2H)-yl)-2-fluoro-N-methylbenzamide (+)], for which the pIC50 is 5.66. With `N#Cc1ccc(N2C(=O)N(c3ccnc(F)c3)[C@@H]3CCCC[C@H]32)cc1C(F)(F)F` (relative stereo) [Example 10b, Trans-4-(3-(2-fluoropyridin-4-yl)-2-oxooctahydro-1H-benzo[d]imidazol-1-yl)-2-(trifluoromethyl)benzonitrile (−)], the negative logarithm of the IC50 (pIC50) was 6.55. Same read-out and setting: the figure for “4-((3aS,7aS)-3-(4-cyano-3-(trifluoromethyl)phenyl)-2-oxooctahydro-1H-benzo[d]imidazol-1-yl)-2-fluoro-N—((S)-tetrahydrofuran-3-yl)benzamide and 4-((3aS,7aS)-3-(4-cyano-3-(trifluoromethyl)phenyl)-2-oxooctahydro-1H-benzo[c]imidazol-1-yl)-2-fluoro-N—((R)-tetrahydrofuran-3-yl)benzamide [Example 35]” is 6.63.
